From patent publication US9981940B2, “Aryl sulfide derivatives and aryl sulfoxide derivatives as acaricides and insecticides” (BAYER CROPSCIENCE AKTIENGESELLSCHAFT, priority 2013, dated 2018)
Blank lines part the entries; values can stand above or below the compound they belong to.

Columns and labels:
[1] = test system: Tetranychus urticae; assay: Tetranychus urticae spray test, OP-resistant (TETRUR); format: in vivo; conditions: after 6 days
Experimental: Tetranychus urticae—Spray Test, OP-Resistant (TETRUR)
• Solvent: 78.0 parts by weight of acetone • 1.5 parts by weight of dimethylformamide • Emulsifier: 0.5 part by weight of alkylaryl polyglycol ether
To produce an appropriate active ingredient formulation, 1 part by weight of active ingredient is mixed with the specified amounts of solvent and emulsifier, and the concentrate is diluted to the desired concentration with emulsifier-containing water.
Discs of bean leaves (Phaseolus vulgaris) infested by all stages of the greenhouse red spider mite (Tetranychus urticae) are sprayed with an active ingredient formulation of the desired concentration.
After 6 days, the efficacy in % is determined 100% means that all the spider mites have been killed; 0% means that none of the spider mites have been killed.

[2] = log P by HPLC (OECD Guideline 117), method [a] acidic range; format: physicochemical; conditions: for logP[a]: HPLC, method [a] acidic range; for chromatographic logP: reversed-phase C18 HPLC column, acidic range
Experimental: (§1) The log P values were determined analogously to OECD Guideline 117 (EC Directive 92/69/EEC) by HPLC (high-performance liquid chromatography) using reversed-phase columns (C 18), by the following methods:
[a] The LC-MS determination in the acidic range is effected at pH 2.7 with 0.1% aqueous formic acid and acetonitrile (contains 0.1% formic acid) as eluents; linear gradient from 10% acetonitrile to 95% acetonitrile.

[3] = log P by HPLC (OECD Guideline 117), method [b] neutral range; format: physicochemical; conditions: HPLC; for logP[b]: method [b] neutral range
Experimental: as §1
[b] The LC-MS determination in the neutral range is effected at pH 7.8 with 0.001 molar aqueous ammonium hydrogencarbonate solution and acetonitrile as eluents; linear gradient from 10% acetonitrile to 95% acetonitrile.

- logP[a] [2]: 2.92
- logP[b] [3]: 2.85
Structure (SMILES): Cc1cc(F)c(-n2nc(OCc3ccccc3)n(C)c2=O)cc1[S+]([O-])CC(F)(F)F (centres unmarked) [Example 177]
- efficacy ([1]; application rate of 100 g/ha): 100%

- logP[a] [2]: 3.94
- logP[b] [3]: 3.89
Structure (SMILES): C=CCn1c(OCC(F)(F)F)nn(-c2cc(SCC(F)(F)F)c(C)cc2F)c1=O [Example 399]
- efficacy ([1]; application rate of 500 g/ha): 90%

- logP[a] [2]: 3.80
- logP[b] [3]: 3.73
Structure (SMILES): COCCn1c(C(F)(F)F)nn(-c2cc(SCC(F)(F)F)c(C)cc2F)c1=O [Example 89]
- efficacy ([1]; application rate of 500 g/ha): 100%

- logP[a] [2]: 3.66
- logP[b] [3]: 3.58
Structure (SMILES): Cc1cc(F)c(-n2nc(OCC3CC3)n(C)c2=O)cc1SCC(F)(F)F [Example 143]
- efficacy ([1]; application rate of 500 g/ha): 90%

- logP[a] [2]: 2.34
- logP[b] [3]: 2.28
Structure (SMILES): Cc1cc(C)c([S+]([O-])CC(F)(F)F)cc1-n1ncn(C(C)(C)C)c1=O (centres unmarked) [Example 372]
- efficacy ([1]; application rate of 500 g/ha): 100%

- logP[a] [2]: 3.32
- logP[b] [3]: 3.27
Structure (SMILES): COc1nn(-c2cc(SCC(F)(F)F)c(Cl)cc2F)c(=O)n1C1CC1 [Example 114]
- efficacy ([1]; application rate of 500 g/ha): 100%

- logP[a] [2]: 3.70
- logP[b] [3]: 3.66
Structure (SMILES): Cc1cc(F)c(-n2nc(Oc3ccccc3)n(C)c2=O)cc1SCC(F)(F)F [Example 158]
- efficacy ([1]; application rate of 500 g/ha): 100%

- logP[a] [2]: 3.25
- logP[b] [3]: 3.17
Structure (SMILES): C=C(C)CCOc1nn(-c2cc([S+]([O-])CC(F)(F)F)c(C)cc2F)c(=O)n1C1CC1 (centres unmarked) [Example 137]
- efficacy ([1]; application rate of 500 g/ha): 90%

- logP[a] [2]: 3.39
- logP[b] [3]: 3.33
Structure (SMILES): Cc1cc(F)c(-n2nc(C3CC3)n(C3CC3)c2=O)cc1SCC(F)(F)F [Example 65]
- efficacy ([1]; application rate of 500 g/ha): 100%

- logP[a] [2]: 2.97
- logP[b] [3]: 2.92
Structure (SMILES): COc1nn(-c2cc(SCC(F)(F)F)c(F)cc2F)c(=O)n1C1CC1 [Example 171]
- efficacy ([1]; application rate of 500 g/ha): 100%

- logP[a] [2]: 2.72
- logP[b] [3]: 2.66
Structure (SMILES): Cc1cc(F)c(-n2nc(C3CCC3)n(C3CC3)c2=O)cc1[S+]([O-])CC(F)(F)F (racemic) [Example 88]
- efficacy ([1]; application rate of 500 g/ha): 100%

- logP[a] [2]: 2.94
- logP[b] [3]: 2.87
Structure (SMILES): Cc1cc(F)c(-n2nc(-c3cccc(F)c3)n(C3CC3)c2=O)cc1[S+]([O-])CC(F)(F)F (racemic) [Example 70]
- efficacy ([1]; application rate of 500 g/ha): 90%

- logP[a] [2]: 4.37
- logP[b] [3]: 4.33
Structure (SMILES): C=C(C)CCOc1nn(-c2cc(SCC(F)(F)F)c(C)cc2F)c(=O)n1C1CC1 [Example 136]
- efficacy ([1]; application rate of 500 g/ha): 90%

- logP[a] [2]: 3.50
- logP[b] [3]: 3.44
Structure (SMILES): COc1cc(F)c(-n2nc(OCC(C)(C)C)n(C3CC3)c2=O)cc1[S+]([O-])CC(F)(F)F (centres unmarked) [Example 403]
- efficacy ([1]; application rate of 500 g/ha): 100%

- logP[a] [2]: 2.86
- logP[b] [3]: 2.80
Structure (SMILES): N#Cc1cc(F)c(-n2nc(C(F)(F)F)oc2=O)cc1[S+]([O-])CC(F)(F)F (racemic) [Example 309]

Further lines, the compound ahead of its results:

Structure (SMILES): CCCOc1nn(-c2ccc(C)c(SCC(F)(F)F)c2)c(=O)n1C1CC1 [Example 123]
- efficacy ([1]; application rate of 500 g/ha): 100%
- logP[a] [2]: 4.66
- logP[b] [3]: 4.57

Structure (SMILES): CSc1nn(-c2cc(SCC(F)(F)F)c(C)cc2F)c(=O)n1C1CC1 [Example 259]
- efficacy ([1]; application rate of 500 g/ha): 100%
- logP[a] [2]: 3.56
- logP[b] [3]: 3.60

Structure (SMILES): CNn1c(C2CC2)nn(-c2cc(SCC(F)(F)F)c(C)cc2F)c1=O [Example 199]
- efficacy ([1]; application rate of 500 g/ha): 100%
- logP[a] [2]: 3.15
- logP[b] [3]: 3.07

Structure (SMILES): COCc1nn(-c2cc([S+]([O-])CC(F)(F)F)c(C)cc2F)c(=O)n1N (centres unmarked) [Example 207]
- efficacy ([1]; application rate of 500 g/ha): 100%
- logP[a] [2]: 1.47
- logP[b] [3]: 1.45

Structure (SMILES): CCCCOc1nn(-c2ccc(C)c(SCC(F)(F)F)c2)c(=O)n1C1CC1 [Example 126]
- efficacy ([1]; application rate of 500 g/ha): 90%
- logP[a] [2]: 5.11
- logP[b] [3]: 5.02

Structure (SMILES): CC=Cc1nn(-c2cc(SCC(F)(F)F)c(C)cc2F)c(=S)n1C1CC1 [Example 501]
- efficacy ([1]; application rate of 500 g/ha): 90%
- logP[a] [2]: 4.00
- logP[b] [3]: 3.94

Structure (SMILES): Cc1cc(F)c(-n2nc(C3CC3)oc2=O)cc1SCC(F)(F)F [Example 456]
- efficacy ([1]; application rate of 500 g/ha): 100%
- logP[a] [2]: 3.62
- logP[b] [3]: 3.55

Structure (SMILES): Cc1ccc(-n2nnn(C)c2=O)cc1SCC(F)(F)F [Example 296]
- efficacy ([1]; application rate of 500 g/ha): 90%
- logP[a] [2]: 3.07
- logP[b] [3]: 3.04

Structure (SMILES): CCSc1nn(-c2cc(SCC(F)(F)F)c(C)cc2F)c(=O)n1CC [Example 292]
- efficacy ([1]; application rate of 500 g/ha): 100%
- logP[a] [2]: 3.91
- logP[b] [3]: 3.86

Structure (SMILES): CC[S+]([O-])c1nn(-c2cc(SCC(F)(F)F)c(C)cc2F)c(=O)n1C (centres unmarked) [Example 243, 5-(Ethylsulphinyl)-2-{2-fluoro-4-methyl-5-[(2,2,2-trifluoroethyl)sulphanyl]phenyl}-4-methyl-2,4-dihydro-3H-1,2,4-triazol-3-one]
- pest or weed control at 500 g/ha ([1]; Tetranychus urticae, 144 h, application rate of 500 g/ha, read-out: efficacy): 100%
- chromatographic logP ([2]; pH 2.7, HPLC method [a], read-out: logP[a]): 2.55
- chromatographic logP ([2]; pH 2.7, HPLC, pH 2.7, read-out: log P[a]): 2.55
- chromatographic logP ([3]; reversed-phase C18 HPLC column, neutral range, pH 7.8): 2.51

Structure (SMILES): C=CCOc1nn(-c2cc(SCC(F)(F)F)c(C)cc2F)c(=O)n1C1CC1 [Example 375]
- efficacy ([1]; application rate of 500 g/ha): 100%
- logP[a] [2]: 3.74
- logP[b] [3]: 3.70

Structure (SMILES): COC1=CC(=O)N(c2cc([S+]([O-])CC(F)(F)F)c(Cl)cc2Cl)C1 (racemic) [Example 314]
- efficacy ([1]; application rate of 500 g/ha): 100%
- logP[a] [2]: 2.24
- logP[b] [3]: 2.23

Structure (SMILES): Cc1cc(F)c(-n2nc(C3CC3)n(C3CC3)c2=O)cc1[S+]([O-])CC(F)(F)F (racemic) [Example 66]
- efficacy ([1]; application rate of 500 g/ha): 100%
- logP[a] [2]: 2.31
- logP[b] [3]: 2.33

Structure (SMILES): CCCOc1nn(-c2cc([S+]([O-])CC(F)(F)F)c(C)cc2F)c(=O)n1CC (centres unmarked) [Example 408]
- efficacy ([1]; application rate of 500 g/ha): 100%
- logP[a] [2]: 2.86
- logP[b] [3]: 2.81

Structure (SMILES): COc1nn(-c2cc(SCC(F)(F)F)c(Br)cc2F)c(=O)n1C [Example 175]
- efficacy ([1]; application rate of 100 g/ha): 100%
- logP[a] [2]: 3.04
- logP[b] [3]: 2.98

Structure (SMILES): CCCn1c(OC)nn(-c2cc(SCC(F)(F)F)c(C)cc2F)c1=O [Example 389]
- efficacy ([1]; application rate of 500 g/ha): 90%
- logP[a] [2]: 3.53
- logP[b] [3]: 3.46

Structure (SMILES): Cc1cc(F)c(-n2nc(SCC(F)F)n(C)c2=O)cc1[S+]([O-])CC(F)(F)F (racemic) [Example 289]
- efficacy ([1]; application rate of 500 g/ha): 100%
- logP[a] [2]: 3.30
- logP[b] [3]: 3.25

Structure (SMILES): Cc1cc(F)c(-n2ccn(C(C)(C)C)c2=O)cc1SCC(F)(F)F [Example 488]
- efficacy ([1]; application rate of 500 g/ha): 100%
- logP[a] [2]: 3.69
- logP[b] [3]: 3.63

Structure (SMILES): CNn1c(N(C)C)nn(-c2cc(SCC(F)(F)F)c(C)cc2F)c1=O [Example 216]
- efficacy ([1]; application rate of 500 g/ha): 100%
- logP[a] [2]: 3.03
- logP[b] [3]: 2.99

Structure (SMILES): O=c1n(-c2cc(SCC(F)(F)F)c(Cl)cc2Cl)nc(OCC(F)(F)F)n1C1CC1 [Example 185]
- efficacy ([1]; application rate of 500 g/ha): 90%
- logP[a] [2]: 4.14
- logP[b] [3]: 4.10

Structure (SMILES): Cc1cc(F)c(-n2nc(C(C)(C)C)n(C3CC3)c2=O)cc1SCC(F)(F)F [Example 63]
- efficacy ([1]; application rate of 500 g/ha): 100%
- logP[a] [2]: 4.17
- logP[b] [3]: 4.11

Structure (SMILES): C=CCn1c(SCCC)nn(-c2cc([S+]([O-])CC(F)(F)F)c(C)cc2F)c1=O (centres unmarked) [Example 430]
- efficacy ([1]; application rate of 500 g/ha): 90%
- logP[a] [2]: 3.18
- logP[b] [3]: 3.33

Structure (SMILES): C=CCSc1nn(-c2cc([S+]([O-])CC(F)(F)F)c(C)cc2F)c(=O)n1CC=C (centres unmarked) [Example 432]
- logP[a] [2]: 2.94
- logP[b] [3]: 3.05
